Laboratory results: PubChem BioAssay AID248 (DTP/NCI, 2004)
Values joined by “and” are separate entries in the source; they are usually repeats but may differ in a detail not shown here. Equal entries are not always repeated. Toxic doses and inconclusive results are not listed.

System: L1210 leukemia ip in BDF1 mice, survival T/C
Test: NCI In Vivo Anticancer Drug Screen. Data for tumor model L1210 Leukemia (intraperitoneal) in B6D2F1 (BDF1) mice
Conditions: endpoint: mean survival time, higher = longer survival
Method in brief: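 Each compound was tested against a transplantable tumor grown in mice. The endpoint was survival, with treated animals benchmarked against vehicle controls as a simple ratio.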

[1] = dose: 25.0 mg/kg/injection, schedule: Q01DX009 (ip), vehicle: saline
[2] = dose: 50.0 mg/kg/injection, schedule: Q01DX009 (ip), vehicle: saline
[3] = dose: 100.0 mg/kg/injection, schedule: Q01DX009 (ip), vehicle: Klucel (hydroxypropylcellulose) (HPC)
[4] = dose: 100.0 mg/kg/injection, schedule: Q04DX003 (ip), vehicle: Klucel (hydroxypropylcellulose) (HPC)
[5] = dose: 200.0 mg/kg/injection, schedule: Q01DX009 (ip), vehicle: Klucel (hydroxypropylcellulose) (HPC)
[6] = dose: 200.0 mg/kg/injection, schedule: Q04DX003 (ip), vehicle: Klucel (hydroxypropylcellulose) (HPC)
[7] = dose: 400.0 mg/kg/injection, schedule: Q04DX003 (ip), vehicle: Klucel (hydroxypropylcellulose) (HPC)
[8] = dose: 100.0 mg/kg/injection, schedule: Q01DX009 (ip), vehicle: saline with Tween-80
[9] = dose: 100.0 mg/kg/injection, schedule: Q04DX003 (ip), vehicle: saline with Tween-80
[10] = dose: 200.0 mg/kg/injection, schedule: Q04DX003 (ip), vehicle: saline with Tween-80
[11] = dose: 400.0 mg/kg/injection, schedule: Q04DX003 (ip), vehicle: saline with Tween-80
[12] = dose: 100.0 mg/kg/injection, schedule: Q01DX009 (ip), vehicle: saline
[13] = dose: 100.0 mg/kg/injection, schedule: Q01DX001 (ip), vehicle: saline
[14] = dose: 200.0 mg/kg/injection, schedule: Q01DX001 (ip), vehicle: saline

SMILES: CCC1=[N+](C)C(C)(C)CC(C)O1 (stereo not given)
- T/C (dose: 6.25 mg/kg/injection, schedule: Q01DX009 (ip), vehicle: saline): 102 % of control
- T/C (dose: 6.25 mg/kg/injection, schedule: Q04DX003 (ip), vehicle: saline with Tween-80): 98 % of control
- T/C (dose: 12.5 mg/kg/injection, schedule: Q01DX009 (ip), vehicle: saline): 102 % of control
- T/C (dose: 12.5 mg/kg/injection, schedule: Q04DX003 (ip), vehicle: saline with Tween-80): 94 % of control
- T/C [1]: 107 % of control
- T/C (dose: 25.0 mg/kg/injection, schedule: Q04DX003 (ip), vehicle: saline with Tween-80): 94 % of control
- T/C [2]: 102 % of control
- T/C (dose: 50.0 mg/kg/injection, schedule: Q04DX003 (ip), vehicle: saline with Tween-80): 94 % of control and 95 % of control

SMILES: COc1ccc([P+](Cc2ccccc2)(c2ccccc2)c2ccc3ccccc3c2)cc1 (stereo not given)
- T/C (dose: 75.0 mg/kg/injection, schedule: Q01DX001 (ip), vehicle: carboxymethylcellulose (CMC)): 91 % of control
- T/C (dose: 150.0 mg/kg/injection, schedule: Q01DX001 (ip), vehicle: carboxymethylcellulose (CMC)): 96 % of control

SMILES: O=C1c2ccccc2C(=O)C2C3C=CC(CC3)C12 (stereo not given)
- T/C (dose: 50.0 mg/kg/injection, schedule: Q01DX001 (ip), vehicle: carboxymethylcellulose (CMC)): 100 % of control
- T/C (dose: 100.0 mg/kg/injection, schedule: Q01DX001 (ip), vehicle: carboxymethylcellulose (CMC)): 97 % of control
- T/C (dose: 200.0 mg/kg/injection, schedule: Q01DX001 (ip), vehicle: carboxymethylcellulose (CMC)): 97 % of control
- T/C (dose: 400.0 mg/kg/injection, schedule: Q01DX001 (ip), vehicle: carboxymethylcellulose (CMC)): 97 % of control

SMILES: CC1(C)C2CC3C(=CCC4C(=O)OC(=O)C43)C1C2 (stereo not given)
- T/C [3]: 104 % of control
- T/C [4]: 101 % of control
- T/C [5]: 100 % of control
- T/C [6]: 100 % of control
- T/C [7]: 100 % of control

SMILES: CC(=O)CC(=O)CC(O)(C(F)(F)F)C(F)(F)F
- T/C [8]: 96 % of control

SMILES: CCN(C(=O)c1ccccc1C)C(c1ccccc1)P(=O)(c1ccccc1)c1ccccc1 (stereo not given)
- T/C (dose: 100.0 mg/kg/injection, schedule: Q01DX001 (ip), vehicle: saline with Tween-80): 118 % of control
- T/C (dose: 100.0 mg/kg/injection, schedule: Q04DX002 (ip), vehicle: saline with Tween-80): 98 % of control and 100 % of control
- T/C [9]: 109 % of control and 86 % of control
- T/C (dose: 200.0 mg/kg/injection, schedule: Q01DX001 (ip), vehicle: saline with Tween-80): 100 % of control
- T/C (dose: 200.0 mg/kg/injection, schedule: Q04DX002 (ip), vehicle: saline with Tween-80): 93 % of control and 102 % of control
- T/C [10]: 94 % of control and 96 % of control
- T/C (dose: 400.0 mg/kg/injection, schedule: Q01DX001 (ip), vehicle: saline with Tween-80): 97 % of control
- T/C (dose: 400.0 mg/kg/injection, schedule: Q04DX002 (ip), vehicle: saline with Tween-80): 93 % of control and 90 % of control
- T/C [11]: 93 % of control and 112 % of control

SMILES: O=c1[nH]c(=O)n(C2CC(O)C(CO)O2)cc1Br (stereo not given)
- T/C (dose: 50.0 mg/kg/injection, schedule: Q02DX Z (ip), vehicle: carboxymethylcellulose (CMC)): 108 % of control
- T/C (dose: 100.0 mg/kg/injection, schedule: Q02DX Z (ip), vehicle: carboxymethylcellulose (CMC)): 107 % of control
- T/C (dose: 150.0 mg/kg/injection, schedule: Q02DX Z (ip), vehicle: carboxymethylcellulose (CMC)): 109 % of control
- T/C (dose: 200.0 mg/kg/injection, schedule: Q02DX Z (ip), vehicle: carboxymethylcellulose (CMC)): 113 % of control
- T/C (dose: 250.0 mg/kg/injection, schedule: Q02DX Z (ip), vehicle: carboxymethylcellulose (CMC)): 109 % of control
- T/C (dose: 300.0 mg/kg/injection, schedule: Q02DX Z (ip), vehicle: carboxymethylcellulose (CMC)): 113 % of control
- T/C (dose: 400.0 mg/kg/injection, schedule: Q02DX Z (ip), vehicle: carboxymethylcellulose (CMC)): 110 % of control
- T/C (dose: 500.0 mg/kg/injection, schedule: Q02DX Z (ip), vehicle: carboxymethylcellulose (CMC)): 114 % of control
- T/C (dose: 600.0 mg/kg/injection, schedule: Q01DX009 (ip), vehicle: carboxymethylcellulose (CMC)): 123 % of control
- T/C (dose: 600.0 mg/kg/injection, schedule: Q02DX Z (ip), vehicle: carboxymethylcellulose (CMC)): 122 % of control
- T/C (dose: 800.0 mg/kg/injection, schedule: Q01DX Z (ip), vehicle: carboxymethylcellulose (CMC)): 122 % of control
- T/C (dose: 1000.0 mg/kg/injection, schedule: Q01DX Z (ip), vehicle: carboxymethylcellulose (CMC)): 113 % of control
- T/C (dose: 1800.0 mg/kg/injection, schedule: Q01DX009 (ip), vehicle: carboxymethylcellulose (CMC)): 102 % of control

SMILES: Clc1nc2nc(C3CC3)[nH]c2nc1Cl
- T/C [8]: 104 % of control
- T/C [9]: 97 % of control
- T/C (dose: 200.0 mg/kg/injection, schedule: Q01DX009 (ip), vehicle: saline with Tween-80): 90 % of control
- T/C [10]: 95 % of control
- T/C (dose: 400.0 mg/kg/injection, schedule: Q01DX009 (ip), vehicle: saline with Tween-80): 111 % of control
- T/C [11]: 101 % of control

SMILES: COC1C2CCC1[N+](C)(C)CC2 (stereo not given)
- T/C [1]: 101 % of control
- T/C [2]: 105 % of control
- T/C [12]: 107 % of control and 110 % of control

SMILES: CCOC(=O)c1cc(Cl)c(N)c(Cl)c1
- T/C [3]: 93 % of control
- T/C [5]: 90 % of control
- T/C (dose: 400.0 mg/kg/injection, schedule: Q01DX009 (ip), vehicle: Klucel (hydroxypropylcellulose) (HPC)): 100 % of control

SMILES: CC1CNC(c2ccc(NC(=O)c3ccc(C(=O)Nc4ccc(C5=NC(C)CN5)cc4)c(NC(=O)Nc4cccc(C5=NC(C)CN5)c4)c3)cc2)=N1 (stereo not given)
- T/C (dose: 1.88 mg/kg/injection, schedule: Q01DX Z (ip), vehicle: saline): 116 % of control
- T/C (dose: 3.75 mg/kg/injection, schedule: Q01DX Z (oral), vehicle: saline): 103 % of control
- T/C (dose: 7.5 mg/kg/injection, schedule: Q01DX Z (ip), vehicle: saline): 153 % of control
- T/C (dose: 7.5 mg/kg/injection, schedule: Q01DX Z (oral), vehicle: saline): 106 % of control
- T/C (dose: 15.0 mg/kg/injection, schedule: Q01DX Z (oral), vehicle: saline): 101 % of control
- T/C (dose: 30.0 mg/kg/injection, schedule: Q01DX Z (oral), vehicle: saline): 117 % of control
- T/C (dose: 62.5 mg/kg/injection, schedule: Q01DX010 (oral), vehicle: saline): 99 % of control
- T/C (dose: 125.0 mg/kg/injection, schedule: Q01DX010 (oral), vehicle: saline): 100 % of control
- T/C (dose: 250.0 mg/kg/injection, schedule: Q01DX010 (oral), vehicle: saline): 92 % of control

SMILES: O=[N+]([O-])c1ccc(N(CCO)CCO)cc1
- T/C (dose: 50.0 mg/kg/injection, schedule: Q01DX001 (ip), vehicle: saline): 96 % of control
- T/C [13]: 100 % of control
- T/C [14]: 100 % of control
- T/C (dose: 400.0 mg/kg/injection, schedule: Q01DX001 (ip), vehicle: saline): 96 % of control

SMILES: S=C(S)N1CCOCC1
- T/C (dose: 50.0 mg/kg/injection, schedule: Q01DX009 (ip), vehicle: saline sonified): 104 % of control
- T/C [13]: 105 % of control
- T/C (dose: 100.0 mg/kg/injection, schedule: Q01DX009 (ip), vehicle: saline sonified): 100 % of control
- T/C [12]: 98 % of control
- T/C (dose: 100.0 mg/kg/injection, schedule: Q04DX003 (ip), vehicle: saline): 93 % of control
- T/C [14]: 97 % of control
- T/C (dose: 200.0 mg/kg/injection, schedule: Q01DX009 (ip), vehicle: saline sonified): 94 % of control
- T/C (dose: 200.0 mg/kg/injection, schedule: Q01DX009 (ip), vehicle: saline): 106 % of control
- T/C (dose: 200.0 mg/kg/injection, schedule: Q04DX003 (ip), vehicle: saline): 97 % of control
- T/C (dose: 400.0 mg/kg/injection, schedule: Q01DX009 (ip), vehicle: saline): 96 % of control
- T/C (dose: 400.0 mg/kg/injection, schedule: Q04DX003 (ip), vehicle: saline): 95 % of control

SMILES: Clc1ccc(N2CCN(CCCN3CCN(c4cccc(Cl)c4)CC3)CC2)cc1
- T/C [4]: 88 % of control
- T/C [6]: 91 % of control

SMILES: CCCCCCCCCCCCCCCC(=O)Nc1ccc(C(=O)O)cc1
- T/C [4]: 95 % of control
- T/C [6]: 94 % of control
- T/C [7]: 94 % of control

SMILES: Nc1nc2nc(C(=O)O)cnc2c(=O)[nH]1
- T/C (dose: 12.5 mg/kg/injection, schedule: Q04DX003 (ip), vehicle: saline): 95 % of control
- T/C (dose: 25.0 mg/kg/injection, schedule: Q04DX003 (ip), vehicle: saline): 102 % of control
